Test results reported in patent publication US20250073249A1, “STEROID COMPOUND, AND PREPARATION METHOD THEREFOR AND USE THEREOF” (SHANGHAI INSTITUTE OF MATERIA MEDICA, CHINESE ACADEMY OF …, priority 2022, published 2025).
Substitutions are numbered along the chain they refer to. pIC50: −log10 of the molar value.

Tests used:
[1] = system: 22RV1 prostate cancer cells; assay: Anti-proliferative activity against resistant 22RV1 cells expressing AR-V7; assay type: cell-based; details: for Activity against tumor cells expressing AR splice variants: 22RV1 cells, in words; for pIC50: Homo sapiens, 22RV1 cells expressing AR-V7 splice variant, read-out: Antiproliferative activity IC50
Description: (§1) The cells were then digested with trypsin and counted using an automated cell counter to determine cell density. The cell suspension was diluted to the desired density in growth medium. Subsequently, 100 μL of the cell suspension was seeded into 96-well plates and incubated at 37° C. with 5% CO2 for 24 hours. 10 μL of drug solution (including 3-fold serial dilutions of compounds or DMSO) was added to each well, and the plates were incubated at 37° C. with 5% CO2 for 6 days. Prior to measurement, the assay plates were equilibrated to room temperature. 40 μL of CellTiter-Glo® reagent was added to each well. The plates were mixed on an orbital shaker for 2 minutes to induce cell lysis. After incubation at room temperature for 60 minutes to stabilize the luminescence signal, the plates were read on an Envision plate reader.
The experimental procedure was essentially the same as that for LNCaP cells.

AR = biological target: T1, AR (Homo sapiens, UniProt P10275, T878A); assay: In vitro AR degradation activity test in LNCaP cells (ELISA, OD450); assay type: cell-based; details: LNCaP cells, 24 hours
T1 construct: endogenous in cells; host or cells: LNCaP
T1 sequence (P10275 1-920 T878A): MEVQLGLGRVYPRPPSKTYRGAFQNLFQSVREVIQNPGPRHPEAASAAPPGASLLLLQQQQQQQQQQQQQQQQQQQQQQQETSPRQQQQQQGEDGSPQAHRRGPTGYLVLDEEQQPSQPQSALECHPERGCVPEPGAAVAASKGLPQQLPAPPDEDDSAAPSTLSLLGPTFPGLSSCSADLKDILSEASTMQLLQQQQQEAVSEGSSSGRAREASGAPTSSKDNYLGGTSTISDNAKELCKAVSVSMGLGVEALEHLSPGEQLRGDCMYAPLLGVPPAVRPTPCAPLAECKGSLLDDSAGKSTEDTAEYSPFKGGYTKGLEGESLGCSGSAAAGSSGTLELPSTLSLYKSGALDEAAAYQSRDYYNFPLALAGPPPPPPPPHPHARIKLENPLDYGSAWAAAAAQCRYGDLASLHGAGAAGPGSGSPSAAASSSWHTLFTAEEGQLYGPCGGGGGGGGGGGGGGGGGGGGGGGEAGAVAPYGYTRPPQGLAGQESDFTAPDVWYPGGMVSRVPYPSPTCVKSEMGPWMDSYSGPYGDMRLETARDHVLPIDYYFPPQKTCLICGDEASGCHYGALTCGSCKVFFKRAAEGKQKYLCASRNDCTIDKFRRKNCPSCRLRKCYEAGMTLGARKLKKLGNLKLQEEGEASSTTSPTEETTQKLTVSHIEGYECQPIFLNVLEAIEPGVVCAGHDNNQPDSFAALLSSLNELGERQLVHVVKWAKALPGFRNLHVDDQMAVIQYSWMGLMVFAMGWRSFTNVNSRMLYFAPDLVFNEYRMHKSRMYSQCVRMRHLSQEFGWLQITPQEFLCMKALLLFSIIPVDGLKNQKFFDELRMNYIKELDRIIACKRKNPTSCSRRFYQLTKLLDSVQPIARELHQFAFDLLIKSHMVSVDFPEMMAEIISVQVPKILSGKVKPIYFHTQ
Description: The cells were then digested with trypsin and counted using an automated cell counter. The cell suspension was diluted to the desired density in growth medium. The cell suspension was then seeded into 96-well plates at 100 μL per well, and the plates were incubated at 37° C. with 5% CO2 for 24 hours. The compounds were then diluted 200-fold to the final concentration with DMSO or 3-fold to the final concentration with culture medium. 50 μL of compound solution was transferred to the 96-well plate and incubated at 37° C. for 24 hours. After 24 hours of incubation, the cell plate was washed 3 times with DPBS, 100 μL of 1× lysis buffer was added to each well, and placed on ice for 30 minutes. The supernatant was collected. The protein in the cell lysate samples was quantified and then diluted to the required concentration. 100 μL of cell lysate sample was added to the appropriate wells, sealed with tape and pressed firmly on top of the wells, and the plate was incubated at 37° C. for 2 hours. The plate contents were then discarded, and washed 4 times with 1× wash buffer, 200 μL per well each time. 100 μL of reconstituted detection antibody was then added, the plate was sealed with tape and incubated at 37° C. for 1 hour. The aspiration/wash step was then repeated, 100 μL of reconstituted HRP-Linked secondary antibody was added to each well, the plate was sealed with tape and incubated at 37° C. for 30 minutes. The aspiration/wash step was then repeated, 100 μL of substrate solution was added to each well and incubated at 37° C. for 10 minutes, and finally 100 μL of stop solution was added to each well. The plate was gently tapped to ensure thorough mixing, and the OD450 nm was recorded.
Degradation rate (%)=(OD450_max−OD450_sample)/(OD450_max−OD450_min)×100,plotted using GraphPad Prism 5 software, and IC50 is calculated using SPSS software.

wild-type AR = biological target: T2, wild-type AR (Homo sapiens, UniProt P10275); assay: Wild-type AR antagonist activity test (luciferase reporter in HEK293 cells); assay type: cell-based; details: for pIC50: HEK293 cells, luciferase expression, DHT 1.5 nM, 24 hours; for AR antagonist activity, times higher than that of the control enzalutamide: ratio to enzalutamide IC50
T2 construct: expressed in transfected cells; host or cells: HEK293
T2 sequence (P10275 1-920): T1 sequence (P10275 1-920 T878A) with A878T
Description: HEK293 cells were cultured in DMEM containing 10% fetal bovine serum (FBS) at 37° C. with 5% CO2. The cells were then digested with trypsin and counted. A 10 μL/well transfection solution was prepared in opti-MEM containing 5 ng androgen receptor clone, 100 ng pGL4.36 vector, and 315 nL fugene. […] The diluted cell suspension was seeded into 96-well plates at 90 μL (40,000 cells/well), and the plates were incubated for 24 hours. Then, 10 μL of drug solution (including gradient diluted compounds or DMSO) was added, and the plates were incubated for 30 minutes. […] After 24 hours of incubation, 100 μL of Steady-Glo was added to each well of the plate, the plate was shaken at room temperature for 20 minutes, and read on an Envision.

LNCaP cells = assay: In vitro LNCaP cell proliferation inhibition test (CellTiter-Glo); assay type: cell-based; details: for Maximum Inhibition (%) / pIC50: 6 days; for pIC50: Homo sapiens, read-out: Anti-proliferative activity IC50
Description: as §1

[2] = In vivo pharmacokinetics in rats after oral gavage; details: male SD rats, PO 10 mg/kg; for AUC(0-inf) / AUC(0-t) / half-life / Cmax / tmax: rat, plasma; for Cmax: read-out: Cmax; for tmax: read-out: tmax
Description: Male SD rats were randomly divided into 6 groups, 3 rats per group. The rats were fasted but not water-deprived for 12-14 h one day before dosing. The test samples were then dissolved in a solvent of 5% DMSO+30% PEG400+65% (0.5% MC) and administered by gavage at 10 mg/kg. Food was provided 4 h after dosing. Blood samples (0.10 mL) were collected via the orbital sinus at 0, 15, 30 min, 1, 2, 4, 6, 8, and 24 h, with EDTA-K2 as anticoagulant. Blood samples were placed on ice after collection and centrifuged to separate plasma within 30 minutes (centrifugation conditions: 5000 rpm, 10 minutes, 4° C.). 50.0 μL of plasma sample (taken from −80° C. freezer, thawed naturally at room temperature and vortexed for 30 seconds) was added to a 1.5 mL centrifuge tube, followed by addition of 500 μL internal standard solution (methanol (TEDIA, HPLC grade), acetonitrile (TEDIA, HPLC grade), formic acid (FA, ACROS ORGANICS, HPLC grade), water was laboratory-made ultrapure water (100.0 ng·mL−1)). The mixture was vortexed for 60 seconds and centrifuged for 3 minutes (centrifugal force 12000 rpm). 100 μL of the supernatant was transferred to a 96-well injection plate containing an equal volume of water, mixed by shaking, and analyzed by LC-MS/MS with an injection volume of 10 μL. The data acquisition and control system software was Analyst 1.5.1 software (Applied Biosystem). The chromatographic sample peaks were integrated automatically. The ratio of sample peak area to internal standard peak area was used as an indicator for regression with sample concentration.
The pharmacokinetic parameters of representative compounds of the present invention were tested in male SD rats after oral gavage administration at 10 mg/kg according to the above conventional method to examine the pharmacokinetic characteristics of the compounds of the present invention in rats.

ACE2 = ACE2 mRNA expression in A549 cells (qPCR); assay type: cell-based; details: 10 μM, 1 nM DHT, 48 h, Blank = 1
TMPRSS2 = TMPRSS2 mRNA expression in A549 cells (qPCR); assay type: cell-based; details: 10 μM, 1 nM DHT, 48 h, Blank = 1

For `CNC(=O)c1ccc(N2C(=S)N(c3cnc(C#N)c(C(F)(F)F)c3)C(=O)C23CCC3)cc1F` [Apalutamide, apalutamide], the “Activity against tumor cells expressing AR splice variants” value [1] was “no activity” and the pIC50 [1] was < 5.00.

With `Cc1cn(C2=CCC3C4CC=C5C[C@@H](NC(=O)c6ccnnc6)CC[C@]5(C)C4CC[C@]23C)cn1` (some centres unmarked) [Compound 13] the DC50 (AR) was 2080 nM, the pIC50 (wild-type AR) was 6.61 and the “AR antagonist activity, times higher than that of the control enzalutamide” value (wild-type AR) was 1.8 times. For the same molecule, the “Maximum Inhibition (%)” value (LNCaP cells) was 96.97%, the pIC50 (LNCaP cells) was 6.33 and the “Anti-tumor activity and efficacy compared to enzalutamide” value (LNCaP cells; in words) was “comparable anti-tumor activity but significantly superior anti-tumor efficacy compared to enzalutamide”.

`C[C@]12CC[C@H](NC(=O)c3ccnnc3)CC1=CCC1C2CC[C@]2(C)C(n3ccnc3)=CCC12` (some centres unmarked) [Compound 16] showed a DC50 (AR) of 2760 nM, a Kel [2] of 0.296 h⁻¹ and an MRTPO [2] of 6.25 h. The AUC(0-inf) [2] was 37500 ng·h/mL, the AUC(0-t) [2] was 37400 ng·h/mL and the half-life [2] was 2.36 h. The Cmax [2] was 3240 ng/mL, the tmax [2] was 4 h and the “Maximum Inhibition (%)” value (LNCaP cells) was 92.41%. It also gave a pIC50 (LNCaP cells) of 6.42.

For `C[C@]12CC[C@H](NC(=O)c3ccncc3)CC1=CCC1C2CC[C@]2(C)C(n3ccnc3)=CCC12` (stereo partly drawn) [Compound 17, N-((3S,10R,13S)-17-(1H-imidazol-1-yl)-10,13-dimethyl-2,3,4,7,8,9,10,11,12,13,14,15-dodecahydro-1H-cyclopenta[a]phenanthren-3-yl)isonicotinamide], the DC50 (AR) was 1980 nM, the Kel [2] was 0.112 h⁻¹ and the MRTPO [2] was 15.5 h. It also gave an AUC(0-inf) [2] of 65600 ng·h/mL, an AUC(0-t) [2] of 28800 ng·h/mL and a half-life [2] of 10 h. For the same molecule, the Cmax [2] was 4500 ng/mL, the tmax [2] was 2 h and the “Maximum Inhibition (%)” value (LNCaP cells) was 96.99%. The pIC50 (LNCaP cells) was 6.50 and the “Anti-proliferative activity, fold improvement compared to abiraterone” value (LNCaP cells; ratio to abiraterone IC50) was 8.8 fold.

For `Cc1cn(C2=CCC3C4CC=C5C[C@@H](NC(=O)c6ccc([N+](=O)[O-])cc6)CC[C@]5(C)C4CC[C@]23C)cn1` (stereo partly drawn) [Compound 34, N-((3S,10R,13S)-17-(4-methyl-1H-imidazol-1-yl)-10,13-dimethyl-2,3,4,7,8,9,10,11,12,13,14,15-dodecahydro-1H-cyclopenta[a]phenanthren-3-yl)-4-nitrobenzamide], the DC50 (AR) was 2600 nM, the pIC50 (wild-type AR) was 7.15 and the “AR antagonist activity, times higher than that of the control enzalutamide” value (wild-type AR) was 6.2 times.

In the case of `CC(O)c1cc(C(=O)N[C@@H](C)Cn2ccc(-c3ccc(C#N)c(Cl)c3)n2)[nH]n1` (some centres unmarked) [Darolutamide, darolutamide], the “Activity against tumor cells expressing AR splice variants” value [1] was “no activity” and the pIC50 [1] was < 5.00.

In the case of `CNC(=O)c1ccc(N2C(=S)N(c3ccc(C#N)c(C(F)(F)F)c3)C(=O)C2(C)C)cc1F` [Enzalutamide, enzalutamide, reference compound], the “Maximum Inhibition (%)” value (LNCaP cells) was 55.16% and the “Activity against tumor cells expressing AR splice variants” value [1] was “no activity”.

With `CC1(C)C(=O)N(c2ccc(C#N)c(C(F)(F)F)c2F)C(=S)N1c1ccc(CCCc2ncco2)nc1` [Proxalutamide, proxalutamide, reference compound] the “ACE2 mRNA level” value (ACE2) was 0.463 and the “TMPRSS2 mRNA level” value (TMPRSS2) was 0.608.
